The subject of the test is workers of the eastern subterranean termite, Reticulitermes flavipes. Briefly: Test example 4: soil incorporation bioassay with compound P5a formulations. In kind it is in vivo. The settings on record: 24 h, 1 DAT, read-out: Mean cumulative % mortality at days after treatment (DAT). The procedure:
Bioassays were conducted in 60×15 mm Petri dishes with a 1% agar layer for moisture and 15 termite workers per dish. Granular formulations were incorporated into the Princeton sandy loam soil by hand shaking and mixing with use of a commercial jar roller. After incorporation, water was added to field capacity, and the soil was rolled again. The soil was allowed to sit at field capacity overnight. The soil was then air dried for 24 hours prior to introduction into the test dishes. Conventional suspension concentrate of fipronil was used as a standard, and untreated soil used as a control. Test dishes were maintained at approximately 26° C. and 85% RH. Dishes were observed daily for 13 days for mortality. The concentration of active ingredient was 0.0004875% (w/w) in trench.
Test example 4 was performed similar to test example 1, using formulations containing compound P5a. Comparison of a superabsorber formulation of compound P5 to a DC formulation of compound P5 for bioactivity against workers of the eastern subterranean termite, Reticulitermes flavipes, via soil (Princeton sandy loam) incorporation;

SMILES strings stand for the structures.

As for `CCN/C(=N\Nc1c(Cl)cc(C(F)(F)F)cc1Cl)C1(C)CC1(Cl)Cl` (centres unmarked) [Compound P5a], the mortality at 10 ppm (Rate 10 ppm) was found to be 100%. For the setting “Rate 100 ppm”, the mortality at 100 ppm amounted to 100%.
